From patent US20230009608A1, “GRK2 INHIBITORS AND USES THEREOF” (Cygnal Therapeutics, Inc., priority 2020, published 2023)
pIC50: −log10 of the molar value.

System: PAXF1657 control empty vector cell line
Test: 7-day proliferation assay, PAXF1657 control empty vector cell line (Example 9)
Assay type: cell-based
Conditions: 168 h; Cell Line: PAXF1657 empty vector (EV) cell line; 7-day; read-out: C: 7-day proliferation assay: IC50 GeoMean
Method: In order to identify compounds specific for GRK2, we generated two isogenic cell line pairs of the pancreatic cancer cell line PAXF1657, a pair of cells stably overexpressing GRK2 cDNA or the control empty vector and a cell line pair of PAXF1657 GRK2 knockout clonal cells versus non-targeting control clonal cells.
Proliferation Assay: Cellular anti-proliferative activity of compounds was assessed by using the pancreatic cancer cell line, PAXF1657, stably overexpressing GRK2 cDNA or the control empty vector, as well as the parental urinary bladder cancer cell line, 5637. In addition, we also took advantage of GRK2 knockout cell lines that were generated via CRISPR. Cell lines were seeded into tissue culture treated, white-walled, 96-well plates at a density of 500 cells/well in RPMI1640 media supplemented with 10% H.I. FBS and penicillin/streptomycin. Plates were incubated overnight at 37° C., 5% CO2 to allow cells to adhere to the wells. GRK2 inhibitors were added to the cells using a 10-point dilution series with a final concentration ranging from 30 μM-0.0002 μM in 0.3% DMSO. At the time of compound addition, a set of plates, that were not treated with compounds, were collected and cell viability was measured using CellTiter-Glo (Promega). CellTiter-Glo reagent was added to the designed plates and luminescence was measuring using a Biotek Synergy plate reader. The compound treated cells were incubated for 3 days at 37° C., 5% CO2. The media was then aspirated from each well and replaced with fresh media containing GRK2 inhibitors. The compound treated cells were then incubated for an additional 4 days at 37° C., 5% CO2. Cell viability was assessed and at end of the 7-day compound treatment by CellTiterGlo.

COC[C@H](NC(=O)c1cccc(NCc2nnc(-c3ccncc3)[nH]2)c1)c1cccnc1 and CN(C)CCC(NC(=O)c1cccc(NCc2nnc(-c3ccncc3)[nH]2)c1)c1cccnc1 (stereo not drawn) cannot be ordered by pIC50: less than 5.00 for the first, less than 5.00 for the second.

CN1CCN(c2nccc(CNC(=O)c3cccc(NCc4nnc(-c5ccncn5)n4C)c3)n2)CC1 and Cc1ccnc(CNC(=O)c2cccc(NCc3nnc(-c4ccncn4)n3C)c2)n1 cannot be ordered by pIC50: less than 5.00 for the first, less than 5.00 for the second.

Compared with COc1ccnc(CNC(=O)c2cccc(NCc3nnc(-c4ccncn4)n3C)c2)c1, COc1ccc(CNC(=O)c2cccc(NCc3nnc(-c4ccncn4)n3C)c2)nc1 is lower in pIC50: 5.50 for the first, less than 5.00 for the second.

Going from Cn1c(CNc2cccc(C(=O)NCc3ncccn3)c2)nnc1-c1ccncn1 to CCC(NC(=O)c1cccc(NCc2nnc(-c3ccncn3)n2C)c1)c1ncccn1 (stereo not drawn), the pIC50 rises from less than 5.00 to 5.27. The second is the more potent here.

Cn1c(CNc2cccc(C(=O)NC(CO)c3cccc(F)c3)c2)nnc1-c1ccncn1 (stereo not drawn) and C[C@H](NC(=O)c1cccc(NCc2nnc(-c3ccncn3)n2C)c1)c1cncc(F)c1 are within 0.2 log units of each other in pIC50: 5.61 for the first, 5.64 for the second.

Going from COc1cnccc1C(C)NC(=O)c1cccc(NCc2nnc(-c3ccncc3)[nH]2)c1 (stereo not drawn) to C[C@H](NC(=O)c1cccc(NCc2nnc(-c3ccncc3)[nH]2)c1)c1ccnn1C, the pIC50 rises from less than 5.00 to 5.01.

Compared with CCN(CC)Cc1ccccc1CNC(=O)c1cccc(NCc2nnc(-c3ccncn3)n2C)c1, Cn1c(CNc2cccc(C(=O)NCc3ccccc3C(F)(F)F)c2)nnc1-c1ccncn1 is higher in pIC50: less than 5.00 for the first, 5.94 for the second.

Going from Cn1c(CNc2cccc(C(=O)NCc3cc(C(C)(C)C)ccn3)c2)nnc1-c1ccncn1 to Cn1c(CNc2cccc(C(=O)NCc3cc(C(F)(F)F)ccn3)c2)nnc1-c1ccncn1, the pIC50 falls from 5.57 to less than 5.00.

Cn1cc(C(C)(C)NC(=O)c2cccc(NCc3nnc(-c4ccncn4)n3C)c2)cn1 and Cc1csc(C(C)(C)NC(=O)c2cccc(NCc3nnc(-c4ccncn4)n3C)c2)n1 cannot be ordered by pIC50: less than 5.00 for the first, less than 5.00 for the second.

Going from CCn1nc(C)c(CNC(=O)c2cccc(NCc3nnc(-c4ccncn4)n3C)c2)n1 to Cc1nc(CNC(=O)c2cccc(NCc3nnc(-c4ccncn4)n3C)c2)c[nH]1, the pIC50 falls from 6.26 to less than 5.00. The first is the more potent here.

First: CCn1nccc1CNC(=O)c1cccc(NCc2nnc(-c3ccncc3)[nH]2)c1
Second: CCn1ncnc1CNC(=O)c1cccc(NCc2nnc(-c3ccncc3)[nH]2)c1
The pIC50 of the first is higher: 6.13 for the first, less than 5.00 for the second. The first is the more potent here.

Cn1c(CNc2cccc(C(=O)NCc3ccncc3)c2)nnc1-c1ccncn1 and Cc1cc(CNC(=O)c2cccc(NCc3nnc(-c4ccncn4)n3C)c2)ccn1 cannot be ordered by pIC50: less than 5.00 for the first, less than 5.00 for the second.

Cn1c(CNc2cccc(C(=O)NCc3nc4ccccc4o3)c2)nnc1-c1ccncn1 and Cn1c(CNc2cccc(C(=O)NCc3ccccc3-n3cncn3)c2)nnc1-c1ccncn1 cannot be ordered by pIC50: less than 5.00 for the first, less than 5.00 for the second.

CC(NC(=O)c1cccc(NCc2nnc(-c3ccncn3)n2C)c1)c1ccn[nH]1 (stereo not drawn) and C[C@H](NC(=O)c1cccc(NCc2nnc(-c3ccncn3)n2C)c1)c1ccnn1C cannot be ordered by pIC50: less than 5.00 for the first, less than 5.00 for the second.

CC1CC(NC(=O)c2cccc(NCc3nnc(-c4ccncn4)n3C)c2)c2ncnn21 (stereo not drawn) and Cc1nc2n(n1)CCCC2NC(=O)c1cccc(NCc2nnc(-c3ccncn3)n2C)c1 (stereo not drawn) cannot be ordered by pIC50: less than 5.00 for the first, less than 5.00 for the second.

First: Cn1c(CNc2cccc(C(=O)NC3(c4ccccn4)CC3)c2)nnc1-c1ccncn1
Second: Cn1c(CNc2cccc(C(=O)NC3(c4ccc(F)cn4)CC3)c2)nnc1-c1ccncn1
The pIC50 of the first is 0.85 log units lower: 5.69 for the first, 6.54 for the second. The second is the more potent here.

O=C(NC1(c2ccncc2)CC1)c1cccc(NCc2nnc(-c3ccncc3)[nH]2)c1 and O=C(NC1(c2cccnc2)CC1)c1cccc(NCc2nnc(-c3ccncc3)[nH]2)c1 cannot be ordered by pIC50: less than 5.00 for the first, less than 5.00 for the second.

Compared with C[C@H](NC(=O)c1cccc(NCc2nnc(-c3ccncn3)n2C)c1)c1ncccc1F, C[C@H](NC(=O)c1cccc(NCc2nnc(-c3ccncn3)n2C)c1)c1ccccn1 is 0.54 log units lower in pIC50: 6.13 for the first, 5.59 for the second. The first is the more potent here.

Compared with O=C(NC[C@H]1COCCO1)c1cccc(NCc2nnc(-c3ccncc3)[nH]2)c1, O=C(NCC1CC1(F)F)c1cccc(NCc2nnc(-c3ccncc3)[nH]2)c1 (stereo not drawn) is lower in pIC50: 5.95 for the first, less than 5.00 for the second. The first is the more potent here.

CCn1nc(C)c(CNC(=O)c2cccc(NCc3nnc(-c4ccncc4)[nH]3)c2)c1C and Cc1nc(C)c(CNC(=O)c2cccc(NCc3nnc(-c4ccncc4)[nH]3)c2)o1 cannot be ordered by pIC50: less than 5.00 for the first, less than 5.00 for the second.

Compared with CC(NC(=O)c1cccc(NCc2nnc(-c3ccncc3)[nH]2)c1)c1cn[nH]c1 (stereo not drawn), COCCn1cc(C(C)NC(=O)c2cccc(NCc3nnc(-c4ccncc4)[nH]3)c2)cn1 (stereo not drawn) is lower in pIC50: 6.49 for the first, less than 5.00 for the second. The first is the more potent here.

Cn1c(CNc2cccc(C(=O)NCc3cn[nH]c3)c2)nnc1-c1ccncn1 and Cn1c(CNc2cccc(C(=O)NCc3cncs3)c2)nnc1-c1ccncn1 cannot be ordered by pIC50: less than 5.00 for the first, less than 5.00 for the second.

First: C[C@H](NC(=O)c1cccc(NCc2nnc(-c3ccncn3)n2C)c1)c1cnccn1
Second: CC(NC(=O)c1cccc(NCc2nnc(-c3ccncn3)n2C)c1)c1ccon1 (stereo not drawn)
The pIC50 of the first is higher: 5.82 for the first, less than 5.00 for the second.

CCn1cnnc1CNC(=O)c1cccc(NCc2nnc(-c3ccncc3)[nH]2)c1 and Cn1cnnc1CNC(=O)c1cccc(NCc2nnc(-c3ccncc3)[nH]2)c1 cannot be ordered by pIC50: less than 5.00 for the first, less than 5.00 for the second.

CN1CCC(CNC(=O)c2cccc(NCc3nnc(-c4ccncc4)[nH]3)c2)C1=O (stereo not drawn) and Cn1c(CNC(=O)c2cccc(NCc3nnc(-c4ccncc4)[nH]3)c2)nnc1C1CC1 cannot be ordered by pIC50: less than 5.00 for the first, less than 5.00 for the second.

CC(NC(=O)c1cccc(NCc2nnc(-c3ccncc3)[nH]2)c1)c1ncn(C)n1 (stereo not drawn) and CC(NC(=O)c1cccc(NCc2nnc(-c3ccncc3)[nH]2)c1)c1ncnn1C (stereo not drawn) cannot be ordered by pIC50: less than 5.00 for the first, less than 5.00 for the second.

First: Cn1c(CNc2cccc(C(=O)NC3CCCc4ncccc43)c2)nnc1-c1ccncn1 (stereo not drawn)
Second: COc1ccc2c(c1)OCC[C@@H]2NC(=O)c1cccc(NCc2nnc(-c3ccncn3)n2C)c1
The pIC50 of the first is 0.60 log units higher: 5.60 for the first, 5.00 for the second.

Going from Cn1c(CNc2cccc(C(=O)NCc3cccc(CN4CCOCC4)c3)c2)nnc1-c1ccncn1 to COCc1cccc(CNC(=O)c2cccc(NCc3nnc(-c4ccncn4)n3C)c2)c1, the pIC50 rises from less than 5.00 to 5.60.

Cn1c(CNc2cccc(C(=O)NCc3ccc(Cn4cncn4)cc3)c2)nnc1-c1ccncn1 and Cn1c(CNc2cccc(C(=O)NCc3cncc(F)c3)c2)nnc1-c1ccncn1 cannot be ordered by pIC50: less than 5.00 for the first, less than 5.00 for the second.

CCn1nccc1C(C)NC(=O)c1cccc(NCc2nnc(-c3ccncc3)[nH]2)c1 (stereo not drawn) and C[C@H](NC(=O)c1cccc(NCc2nnc(-c3ccncc3)[nH]2)c1)c1cnnn1C cannot be ordered by pIC50: less than 5.00 for the first, less than 5.00 for the second.

Cn1c(CNc2cccc(C(=O)NCc3ncoc3C(F)(F)F)c2)nnc1-c1ccncn1 and Cc1ncc(CNC(=O)c2cccc(NCc3nnc(-c4ccncn4)n3C)c2)s1 cannot be ordered by pIC50: less than 5.00 for the first, less than 5.00 for the second.

CNc1cc(CNC(=O)c2cccc(NCc3nnc(-c4ccncc4)[nH]3)c2)ccn1 and Cc1cc(CNC(=O)c2cccc(NCc3nnc(-c4ccncc4)[nH]3)c2)ccn1 cannot be ordered by pIC50: less than 5.00 for the first, less than 5.00 for the second.

First: Cn1c(CNc2cccc(C(=O)N[C@H]3CCOc4c(F)cc(F)cc43)c2)nnc1-c1ccncn1
Second: Cn1c(CNc2cccc(C(=O)NCc3nc(C4CC4)cs3)c2)nnc1-c1ccncn1
The pIC50 of the first is lower: less than 5.00 for the first, 5.59 for the second.

Compared with Cn1c(CNc2cccc(C(=O)NCc3ccc4c(c3)CNC4=O)c2)nnc1-c1ccncn1, CCOc1ncccc1CNC(=O)c1cccc(NCc2nnc(-c3ccncn3)n2C)c1 is higher in pIC50: less than 5.00 for the first, 5.44 for the second.

Cc1nnc(CNC(=O)c2cccc(NCc3nnc(-c4ccncc4)[nH]3)c2)n1C and Cn1c(CNC(=O)c2cccc(NCc3nnc(-c4ccncc4)[nH]3)c2)nnc1C1CCC1 cannot be ordered by pIC50: less than 5.00 for the first, less than 5.00 for the second.

CN(C)CCC(NC(=O)c1cccc(NCc2nnc(-c3ccncc3)[nH]2)c1)c1ccccc1 (stereo not drawn) and O=C(NCc1cccnn1)c1cccc(NCc2nnc(-c3ccncc3)[nH]2)c1 cannot be ordered by pIC50: less than 5.00 for the first, less than 5.00 for the second.

Cn1cc2c(n1)CCCC2NC(=O)c1cccc(NCc2nnc(-c3ccncc3)[nH]2)c1 (stereo not drawn) and CC(NC(=O)c1cccc(NCc2nnc(-c3ccncc3)[nH]2)c1)c1nncn1C (stereo not drawn) cannot be ordered by pIC50: less than 5.00 for the first, less than 5.00 for the second.

COc1ccccc1C1(NC(=O)c2cccc(NCc3nnc(-c4ccncn4)n3C)c2)CC1 and Cn1c(CNc2cccc(C(=O)NC3(c4cccnc4)CCC3)c2)nnc1-c1ccncn1 cannot be ordered by pIC50: less than 5.00 for the first, less than 5.00 for the second.

CC(C)n1ncnc1CNC(=O)c1cccc(NCc2nnc(-c3ccncc3)[nH]2)c1 and O=C(NCc1nccn1CC(F)(F)F)c1cccc(NCc2nnc(-c3ccncc3)[nH]2)c1 cannot be ordered by pIC50: less than 5.00 for the first, less than 5.00 for the second.

First: CC1(CNC(=O)c2cccc(NCc3nnc(-c4ccncc4)[nH]3)c2)CCCOC1 (stereo not drawn)
Second: O=C(NCC1(F)CCC1)c1cccc(NCc2nnc(-c3ccncc3)[nH]2)c1
The pIC50 of the first is lower: less than 5.00 for the first, 5.49 for the second.

Cn1nccc1C(NC(=O)c1cccc(NCc2nnc(-c3ccncn3)n2C)c1)c1ccccc1 (stereo not drawn) and COc1ccccc1[C@@H](NC(=O)c1cccc(NCc2nnc(-c3ccncn3)n2C)c1)c1nccn1C cannot be ordered by pIC50: less than 5.00 for the first, 4.11 for the second.

Compared with Cn1c(CNc2cccc(C(=O)NCc3cc4n(n3)CCCC4)c2)nnc1-c1ccncn1, CCN(CC)C(=O)C(NC(=O)c1cccc(NCc2nnc(-c3ccncn3)n2C)c1)c1ccccc1 (stereo not drawn) is lower in pIC50: 5.66 for the first, less than 5.00 for the second. The first is the more potent here.

O=C(NC1(c2ncccn2)CC1)c1cccc(NCc2nnc(-c3ccncc3)[nH]2)c1 and O=C(NCc1ccncc1OCC(F)F)c1cccc(NCc2nnc(-c3ccncc3)[nH]2)c1 cannot be ordered by pIC50: less than 5.00 for the first, less than 5.00 for the second.

O=C(NCc1nnc2n1CCC(C(F)(F)F)C2)c1cccc(NCc2nnc(-c3ccncc3)[nH]2)c1 (stereo not drawn) was tested, and the pIC50 was 4.05.
